From US10092551B2, “Spiro-thiazolones” (Hoffmann-La Roche Inc., priority 2014, dated 2018)

Target: human V1a receptor (Homo sapiens (Human), UniProt P37288)
Assay: human V1a receptor binding studies (3H-Vasopressin, SPA beads)
Conditions: membranes of HEK293 cells transiently transfected with human V1a receptor, Ki by Cheng-Prussoff
Description: The human V1a receptor was cloned by RT-PCR from total human liver RNA. The coding sequence was subcloned in an expression vector after sequencing to confirm the identity of the amplified sequence. […] Cell membranes were prepared from HEK293 cells transiently transfected with the expression vector and grown in 20 liter fermenters with the following protocol.
50 g of cells are re-suspended in 30 ml freshly prepared ice cold Lysis buffer (50 mM HEPES, 1 mM EDTA, 10 mM MgCl2 adjusted to pH=7.4+complete cocktail of protease inhibitor (Roche Diagnostics)). Homogenized with Polytron for 1 min and sonicated on ice for 2×2 minutes at 80% intensity (Vibracell sonicator). The preparation is centrifuged 20 min at 500 g at 4° C., the pellet is discarded and the supernatant centrifuged 1 hour at 43,000 g at 4° C. (19,000 rpm). The pellet is re-suspended in 12.5 ml Lysis buffer+12.5 ml Sucrose 20% and homogenized using a Polytron for 1-2 min. The protein concentration is determined by the Bradford method and aliquots are stored at −80° C. until use. For binding studies 60 mg Yttrium silicate SPA beads (Amersham) are mixed with an aliquot of membrane in binding buffer (50 mM Tris, 120 mM NaCl, 5 mM KCl, 2 mM CaCl2, 10 mM MgCl2) for 15 minutes with mixing. 50 μl of bead/membrane mixture is then added to each well of a 96 well plate, followed by 50 μl of 4 nM 3H-Vasopressin (American Radiolabeled Chemicals). For total binding measurement 100 μl of binding buffer are added to the respective wells, for non-specific binding 100 μl of 8.4 mM cold vasopressin and for compound testing 100 μl of a serial dilution of each compound in 2% DMSO. The plate is incubated 1 h at room temperature, centrifuged 1 min at 1000 g and counted on a Packard Top-Count. Non-specific binding counts are subtracted from each well and data is normalized to the maximum specific binding set at 100%. To calculate an IC 50 the curve is fitted using a non-linear regression model (XLfit) and the Ki is calculated using the Cheng-Prussoff equation.

human V1a receptor, sequence (P37288 whole entry): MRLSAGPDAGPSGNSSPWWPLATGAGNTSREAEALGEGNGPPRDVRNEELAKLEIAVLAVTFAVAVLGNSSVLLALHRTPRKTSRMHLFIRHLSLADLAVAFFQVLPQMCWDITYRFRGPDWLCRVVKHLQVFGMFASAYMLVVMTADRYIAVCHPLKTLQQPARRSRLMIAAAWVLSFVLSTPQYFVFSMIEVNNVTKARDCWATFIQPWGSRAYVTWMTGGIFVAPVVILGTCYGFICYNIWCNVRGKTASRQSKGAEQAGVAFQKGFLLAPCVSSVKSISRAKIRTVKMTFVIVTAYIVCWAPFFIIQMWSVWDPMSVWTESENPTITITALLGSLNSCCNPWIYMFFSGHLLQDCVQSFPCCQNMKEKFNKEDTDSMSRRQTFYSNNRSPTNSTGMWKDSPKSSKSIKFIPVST

SMILES	pKi hV1a
O=C1N=C(N2CCC3(CC2)OCc2ccccc23)SC1=C1CCCC1 [Example 53, 5-cyclopentylidene-2-(1′H,3H-spiro[2-benzofuran-1,4′-piperidin]-1′-yl)-1,3-thiazol-4(5H)-one]	8.3
C/C(=C1/SC(N2CCC3(CC2)OCc2ncccc23)=NC1=O)c1ccc(C)nc1 [Example 166, (5E/Z)-5-[1-(6-methylpyridin-3-yl)ethylidene]-2-(1′H,7H-spiro[furo[3,4-b]pyridine-5,4′-piperidin]-1′-yl)-1,3-thiazol-4(5H)-one]	7.1
[2H]C([2H])([2H])/C(=C1\SC(N2CCC3(CC2)OCc2ccccc23)=NC1=O)c1ccccc1 [Example 174, (5E)-5-[1-phenyl(^2H3)ethylidene]-2-(1′H,3H-spiro[2-benzofuran-1,4′-piperidin]-1′-yl)-1,3-thiazol-4(5H)-one]	8.7
CC/C(=C1/SC(N2CCC3(CC2)OCc2ccccc23)=NC1=O)c1ccc(Cl)cc1 [Example 13, (5E/Z)-5-[1-(4-chlorophenyl)propylidene]-2-(1′H,3H-spiro[2-benzofuran-1,4′-piperidin]-1′-yl)-1,3-thiazol-4(5H)-one]	8.0
O=C1N=C(N2CCC3(CC2)OCc2ccccc23)S/C1=C1/CCCc2ccc(Cl)cc21 [Example 20, (5E/Z)-5-(7-chloro-3,4-dihydronaphthalen-1 (2H)-ylidene)-2-(1′H,3H-spiro[2-benzofuran-1,4′-piperidin]-1′-yl)-1,3-thiazol-4(5H)-one]	9.0
COC1CCCC/C1=C1/SC(N2CCC3(CC2)OCc2ccccc23)=NC1=O (stereo not shown) [Example 73, (5E/Z)-5-(2-methoxycyclohexylidene)-2-(1′H,3H-spiro[2-benzofuran-1,4′-piperidin]-1′-yl)-1,3-thiazol-4(5H)-one]	8.8
O=C1N=C(N2CCC3(CC2)OCc2ccccc23)SC1=C(C1CC1)C1CC1 [Example 115, 5-(dicyclopropylmethylidene)-2-(1′H,3H-spiro[2-benzofuran-1,4′-piperidin]-1′-yl)-1,3-thiazol-4(5H)-one]	8.9
O=C1N=C(N2CCC3(CC2)OCc2ccccc23)S/C1=C1/CCCc2c(Cl)cccc21 [Example 19, (5E/Z)-5-(5-chloro-3,4-dihydronaphthalen-1(2H)-ylidene)-2-(1′H,3H-spiro[2-benzofuran-1,4′-piperidin]-1′-yl)-1,3-thiazol-4(5H)-one]	7.7
O=C1N=C(N2CCC3(CC2)OCc2ccccc23)S/C1=C1\C=CCC1 [Example 128, (5Z)-5-(cyclopent-2-en-1-ylidene)-2-(1′H,3H-spiro[2-benzofuran-1,4′-piperidin]-1′-yl)-1,3-thiazol-4(5H)-one]	7.6
C/C(=C1/SC(N2[C@@H]3CC[C@H]2C[C@@]2(C3)OC(=O)c3ccccc32)=NC1=O)c1ccc(Cl)cc1 [Example 5, 8-{(5E/Z)-5-[1-(4-chlorophenyl)ethylidene]-4-oxo-4,5-dihydro-1,3-thiazol-2-yl}-3′H-spiro[8-azabicyclo[3.2.1]octane-3,1′-[2]benzofuran]-3′-one]	8.9
O=C1N=C(N2CCC3(CC2)OC(=O)c2ccccc23)S/C1=C(/CO)c1ccc(Cl)nc1 [Example 145, 1′-{(5E)-5-[1-(6-chloropyridin-3-yl)-2-hydroxyethylidene]-4-oxo-4,5-dihydro-1,3-thiazol-2-yl}-3H-spiro[2-benzofuran-1,4′-piperidin]-3-one]	8.0
CC(C)/C(=C1\SC(N2CCC3(CC2)OCc2ccccc23)=NC1=O)c1ccc(Cl)cc1 [Example 154, (5E)-5-[1-(4-chlorophenyl)-2-methylpropylidene]-2-(1′H,3H-spiro[2-benzofuran-1,4′-piperidin]-1′-yl)-1,3-thiazol-4(5H)-one]	7.8
O=C1N=C(N2CCC3(CC2)OCc2ccccc23)S/C1=C1/CC2C3CC4C2C4C13 (stereo not shown) [Example 55, (5E/Z)-5-[hexahydro-1,2,4-(methanetriyl)pentalen-5(1H)-ylidene]-2-(1′H,3H-spiro[2-benzofuran-1,4′-piperidin]-1′-yl)-1,3-thiazol-4(5H)-one]	8.3
